Patent US9693556B2, “Herbicidal pyridazinone derivatives” (SYNGENTA LIMITED, priority 2011, dated 2017)

Key:
Assay type in all cases: in vivo
[1] = test system: Echinochloa crus-galli (ECHCG); assay: Post-emergence herbicidal glasshouse test on Echinochloa crus-galli; conditions: post-emergence, 1000 g/h, evaluated after 13 days
Procedure: (§1) Seeds of a variety of test species are sown in standard soil in pots (Alopecurus myosuroides (ALOMY), Setaria faberi (SETFA), Echinochloa crus-galli (ECHCG), Solanum nigrum (SOLNI), Amaranthus retoflexus (AMARE), Ipomoea hederacea (IPOHE)). After cultivation for one day (pre-emergence) or after 8 days cultivation (post-emergence) under controlled conditions in a glasshouse (at 24/16° C., day/night; 14 hours light; 65% humidity), the plants are sprayed with an aqueous spray solution derived from the formulation of the technical active ingredient in acetone/water (50:50) solution containing 0.5% Tween 20 (polyoxyethelyene sorbitan monolaurate, CAS RN 9005-64-5). Compounds are applied at 1000 g/h. The test plants are then grown in a glasshouse under controlled conditions in a glasshouse (at 24/16° C., day/night; 14 hours light; 65% humidity) and watered twice daily. After 13 days for pre and post-emergence, the test is evaluated for the percentage herbicidal damage caused to the plant. The biological activities are shown in the following table on a five point scale (5=80-100% damage; 4=60-79% damage; 3=40-59% damage; 2=20-39% damage; 1=0-19% damage).

[2] = test system: Ipomoea hederacea (IPOHE); assay: Pre-emergence herbicidal glasshouse test on Ipomoea hederacea; conditions: pre-emergence, 1000 g/h, evaluated after 13 days
Procedure: as §1

Solanum nigrum (SOLNI) [3] = assay: Pre-emergence herbicidal glasshouse test on Solanum nigrum; conditions: pre-emergence, 1000 g/h, evaluated after 13 days
Procedure: as §1

Setaria faberi (SETFA) [4] = assay: Post-emergence herbicidal glasshouse test on Setaria faberi; conditions: post-emergence, 1000 g/h, evaluated after 13 days
Procedure: as §1

[5] = test system: Alopecurus myosuroides (ALOMY); assay: Pre-emergence herbicidal glasshouse test on Alopecurus myosuroides; conditions: pre-emergence, 1000 g/h, evaluated after 13 days
Procedure: as §1

[6] = test system: Alopecurus myosuroides (ALOMY); assay: Post-emergence herbicidal glasshouse test on Alopecurus myosuroides; conditions: post-emergence, 1000 g/h, evaluated after 13 days
Procedure: as §1

Setaria faberi (SETFA) [7] = assay: Pre-emergence herbicidal glasshouse test on Setaria faberi; conditions: pre-emergence, 1000 g/h, evaluated after 13 days
Procedure: as §1

Solanum nigrum (SOLNI) [8] = assay: Post-emergence herbicidal glasshouse test on Solanum nigrum; conditions: post-emergence, 1000 g/h, evaluated after 13 days
Procedure: as §1

[9] = test system: Ipomoea hederacea (IPOHE); assay: Post-emergence herbicidal glasshouse test on Ipomoea hederacea; conditions: post-emergence, 1000 g/h, evaluated after 13 days
Procedure: as §1

[10] = test system: Amaranthus retoflexus (AMARE); assay: Pre-emergence herbicidal glasshouse test on Amaranthus retoflexus; conditions: pre-emergence, 1000 g/h, evaluated after 13 days
Procedure: as §1

[11] = test system: Amaranthus retoflexus (AMARE); assay: Post-emergence herbicidal glasshouse test on Amaranthus retoflexus; conditions: post-emergence, 1000 g/h, evaluated after 13 days
Procedure: as §1

[12] = test system: Echinochloa crus-galli (ECHCG); assay: Pre-emergence herbicidal glasshouse test on Echinochloa crus-galli; conditions: pre-emergence, 1000 g/h, evaluated after 13 days
Procedure: as §1

| SMILES | POST Application ECHCG herbicidal damage (five point scale) [1] | PRE Application IPOHE herbicidal damage (five point scale) [2] | PRE Application SOLNI herbicidal damage (five point scale) (Solanum nigrum (SOLNI) [3]) | POST Application SETFA herbicidal damage (five point scale) (Setaria faberi (SETFA) [4]) | PRE Application ALOMY herbicidal damage (five point scale) [5] | POST Application ALOMY herbicidal damage (five point scale) [6] | PRE Application SETFA herbicidal damage (five point scale) (Setaria faberi (SETFA) [7]) | POST Application SOLNI herbicidal damage (five point scale) (Solanum nigrum (SOLNI) [8]) | POST Application IPOHE herbicidal damage (five point scale) [9] | PRE Application AMARE herbicidal damage (five point scale) [10] | POST Application AMARE herbicidal damage (five point scale) [11] | PRE Application ECHCG herbicidal damage (five point scale) [12] | also measured |
| --- | --- | --- | --- | --- | --- | --- | --- | --- | --- | --- | --- | --- | --- |
| Cn1ncc(-c2ccc(C(F)(F)F)nc2Cl)c(O)c1=O [Compound 4.014] | 3 (3=40-59% damage) | 2 (2=20-39% damage) | 4 (4=60-79% damage) | 2 (2=20-39% damage) | 1 (1=0-19% damage) | 1 (1=0-19% damage) | 1 (1=0-19% damage) | 5 (5=80-100% damage) | 5 (5=80-100% damage) | 5 (5=80-100% damage) | 5 (5=80-100% damage) | 5 (5=80-100% damage) |  |
| Cn1ncc(-c2ccccc2[S+](C)[O-])c(O)c1=O (stereo not drawn) [Compound 1.036] | 5 (5=80-100% damage) | 1 (1=0-19% damage) | 1 (1=0-19% damage) | 5 (5=80-100% damage) | 3 (3=40-59% damage) | 5 (5=80-100% damage) | 2 (2=20-39% damage) | 5 (5=80-100% damage) | 5 (5=80-100% damage) | 3 (3=40-59% damage) | 5 (5=80-100% damage) | 2 (2=20-39% damage) |  |
| Cc1ccc2cc(-c3cnn(C)c(=O)c3O)c(C(F)(F)F)nc2n1 [Compound 1.154] |  |  |  |  |  |  |  |  |  |  |  |  | herbicidal damage, POST Application ECHCG ([1]; five point scale): 5 (5=80-100% damage); herbicidal damage, PRE Application IPOHE ([2]; five point scale): 5 (5=80-100% damage); herbicidal damage, PRE Application SOLNI (Solanum nigrum (SOLNI) [3]; five point scale): 2 (2=20-39% damage); herbicidal damage, POST Application SETFA (Setaria faberi (SETFA) [4]; five point scale): 5 (5=80-100% damage); herbicidal damage, PRE Application ALOMY ([5]; five point scale): 2 (2=20-39% damage); herbicidal damage, POST Application ALOMY ([6]; five point scale): 4 (4=60-79% damage); herbicidal damage, PRE Application SETFA (Setaria faberi (SETFA) [7]; five point scale): 2 (2=20-39% damage); herbicidal damage, POST Application SOLNI (Solanum nigrum (SOLNI) [8]; five point scale): 5 (5=80-100% damage); herbicidal damage, POST Application IPOHE ([9]; five point scale): 5 (5=80-100% damage); herbicidal damage, PRE Application AMARE ([10]; five point scale): 5 (5=80-100% damage); herbicidal damage, POST Application AMARE ([11]; five point scale): 5 (5=80-100% damage); herbicidal damage, PRE Application ECHCG ([12]; five point scale): 5 (5=80-100% damage) |
| Cn1ncc(-c2ccc(C(F)(F)F)nc2OCc2cccc(Cl)c2)c(O)c1=O [Compound 4.009] | 1 (1=0-19% damage) | 1 (1=0-19% damage) | 1 (1=0-19% damage) | 1 (1=0-19% damage) | 1 (1=0-19% damage) | 1 (1=0-19% damage) | 1 (1=0-19% damage) | 5 (5=80-100% damage) | 1 (1=0-19% damage) | 3 (3=40-59% damage) | 4 (4=60-79% damage) | 1 (1=0-19% damage) |  |
| Cc1cc(C#N)ccc1-c1cnn(C)c(=O)c1O [Compound 1.084] | 3 (3=40-59% damage) | 1 (1=0-19% damage) | 1 (1=0-19% damage) | 2 (2=20-39% damage) | 1 (1=0-19% damage) | 1 (1=0-19% damage) | 1 (1=0-19% damage) | 4 (4=60-79% damage) | 4 (4=60-79% damage) | 1 (1=0-19% damage) | 4 (4=60-79% damage) | 1 (1=0-19% damage) |  |
| Cn1ncc(-c2ccc(C(F)(F)F)cc2C(F)(F)F)c(O)c1=O [Compound 1.033] | 2 (2=20-39% damage) | 1 (1=0-19% damage) | 5 (5=80-100% damage) | 1 (1=0-19% damage) | 1 (1=0-19% damage) | 2 (2=20-39% damage) | 1 (1=0-19% damage) | 5 (5=80-100% damage) | 5 (5=80-100% damage) | 5 (5=80-100% damage) | 5 (5=80-100% damage) | 2 (2=20-39% damage) |  |
| CCOc1nn(C)c(=O)c(O)c1-c1ccc(C(F)(F)F)cc1S(C)(=O)=O [Compound 2.050] | 5 (5=80-100% damage) | 5 (5=80-100% damage) | 5 (5=80-100% damage) | 5 (5=80-100% damage) | 5 (5=80-100% damage) | 5 (5=80-100% damage) | 5 (5=80-100% damage) | 5 (5=80-100% damage) | 5 (5=80-100% damage) | 5 (5=80-100% damage) | 5 (5=80-100% damage) | 5 (5=80-100% damage) |  |
| Cn1ncc(-c2cccn(CC(F)(F)F)c2=O)c(O)c1=O [Compound 9.005] | 1 (1=0-19% damage) | 1 (1=0-19% damage) | 1 (1=0-19% damage) | 1 (1=0-19% damage) | 1 (1=0-19% damage) | 1 (1=0-19% damage) | 1 (1=0-19% damage) | 4 (4=60-79% damage) | 2 (2=20-39% damage) | 1 (1=0-19% damage) | 2 (2=20-39% damage) | 1 (1=0-19% damage) |  |
